Data: ChEMBL document CHEMBL1152560, “Substituted 2-arylbenzothiazoles as kinase inhibitors: hit-to-lead optimization” (Bioorg Med Chem, 2009)

What was measured:
[1] = target: Ribosomal protein S6 kinase alpha-4 (Homo sapiens) (UniProt O75676); assay: Residual activity of RPS6KA4 at 1 uM by microplate scintillation counting
[2] = target: T1, Serine/threonine-protein kinase VRK1 (Homo sapiens) (UniProt Q99986); assay: Residual activity of VRK1 at 1 uM by microplate scintillation counting
T1 sequence (whole entry): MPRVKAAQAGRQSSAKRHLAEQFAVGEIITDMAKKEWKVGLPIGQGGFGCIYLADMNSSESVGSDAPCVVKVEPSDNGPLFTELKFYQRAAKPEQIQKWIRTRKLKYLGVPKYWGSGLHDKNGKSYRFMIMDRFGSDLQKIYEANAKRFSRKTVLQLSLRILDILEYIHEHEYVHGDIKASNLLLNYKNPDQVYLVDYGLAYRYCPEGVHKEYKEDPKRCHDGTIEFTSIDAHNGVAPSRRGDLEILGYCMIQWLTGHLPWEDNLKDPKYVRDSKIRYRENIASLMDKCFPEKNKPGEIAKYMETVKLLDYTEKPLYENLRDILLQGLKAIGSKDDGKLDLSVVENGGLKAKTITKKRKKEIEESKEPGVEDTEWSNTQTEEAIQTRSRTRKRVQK

[3] = target: Ephrin type-A receptor 5 (Homo sapiens) (UniProt P54756); assay: Residual activity of EPHA5 at 10 uM by microplate scintillation counting
[4] = target: Activated CDC42 kinase 1 (Homo sapiens) (UniProt Q07912); assay: Residual activity of ACK1 at 1 uM by microplate scintillation counting
[5] = target: Serine/threonine-protein kinase B-raf (Homo sapiens) (UniProt P15056); assay: Residual activity of Wild type B-RAF at 10 uM by microplate scintillation counting
Chain of Serine/threonine-protein kinase B-raf (Homo sapiens) (P15056 whole entry, the tested form may be a part): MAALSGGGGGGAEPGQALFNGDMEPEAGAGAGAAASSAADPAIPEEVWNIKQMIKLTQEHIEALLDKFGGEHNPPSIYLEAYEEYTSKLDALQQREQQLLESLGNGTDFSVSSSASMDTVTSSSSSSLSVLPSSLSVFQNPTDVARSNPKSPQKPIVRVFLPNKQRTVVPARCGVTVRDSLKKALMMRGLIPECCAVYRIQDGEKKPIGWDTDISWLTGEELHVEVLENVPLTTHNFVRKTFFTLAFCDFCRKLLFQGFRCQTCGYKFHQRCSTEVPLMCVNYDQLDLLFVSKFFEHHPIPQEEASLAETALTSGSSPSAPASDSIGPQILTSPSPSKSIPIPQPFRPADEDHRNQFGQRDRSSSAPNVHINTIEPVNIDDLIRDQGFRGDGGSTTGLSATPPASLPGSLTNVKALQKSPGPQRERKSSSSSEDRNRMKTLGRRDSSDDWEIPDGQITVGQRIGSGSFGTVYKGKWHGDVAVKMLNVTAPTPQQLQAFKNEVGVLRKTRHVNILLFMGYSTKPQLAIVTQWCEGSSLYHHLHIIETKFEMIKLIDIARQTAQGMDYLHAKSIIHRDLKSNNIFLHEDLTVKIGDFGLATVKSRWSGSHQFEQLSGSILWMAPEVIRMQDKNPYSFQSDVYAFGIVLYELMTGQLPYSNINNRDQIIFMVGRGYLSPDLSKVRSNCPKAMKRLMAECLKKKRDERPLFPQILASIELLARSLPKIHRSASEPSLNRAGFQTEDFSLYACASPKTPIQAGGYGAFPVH

[6] = target: T2, Discoidin domain-containing receptor 2 (Homo sapiens) (UniProt Q16832); assay: Residual activity of DDR2 at 0.1 uM by microplate scintillation counting
T2 sequence (whole entry): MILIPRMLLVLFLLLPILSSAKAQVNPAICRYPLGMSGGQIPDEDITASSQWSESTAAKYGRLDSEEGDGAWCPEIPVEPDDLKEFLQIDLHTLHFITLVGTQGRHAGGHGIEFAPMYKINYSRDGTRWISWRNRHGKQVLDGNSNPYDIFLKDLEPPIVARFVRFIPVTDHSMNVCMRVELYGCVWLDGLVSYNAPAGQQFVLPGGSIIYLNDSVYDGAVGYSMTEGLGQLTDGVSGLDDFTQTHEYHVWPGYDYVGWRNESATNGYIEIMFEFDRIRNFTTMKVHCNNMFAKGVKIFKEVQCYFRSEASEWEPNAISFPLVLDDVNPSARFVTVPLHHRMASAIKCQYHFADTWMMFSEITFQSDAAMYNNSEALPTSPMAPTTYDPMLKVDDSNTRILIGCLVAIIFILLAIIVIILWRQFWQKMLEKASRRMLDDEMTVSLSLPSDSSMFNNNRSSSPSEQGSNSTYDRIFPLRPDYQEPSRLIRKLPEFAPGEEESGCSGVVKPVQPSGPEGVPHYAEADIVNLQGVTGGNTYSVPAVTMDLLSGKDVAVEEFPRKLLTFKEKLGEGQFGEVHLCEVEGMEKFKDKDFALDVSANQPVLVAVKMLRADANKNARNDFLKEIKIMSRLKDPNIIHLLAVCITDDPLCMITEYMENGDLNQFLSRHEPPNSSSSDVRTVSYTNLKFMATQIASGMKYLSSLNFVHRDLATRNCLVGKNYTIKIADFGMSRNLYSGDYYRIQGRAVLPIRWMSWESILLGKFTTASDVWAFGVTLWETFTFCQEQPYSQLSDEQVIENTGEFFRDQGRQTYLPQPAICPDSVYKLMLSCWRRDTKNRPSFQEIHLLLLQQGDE

[7] = target: Tyrosine-protein kinase Lyn (Homo sapiens) (UniProt P07948); assay: Residual activity of LYN at 10 uM by microplate scintillation counting
[8] = target: Protein kinase C delta type (Homo sapiens) (UniProt Q05655); assay: Residual activity of PKCdelta at 10 uM by microplate scintillation counting
[9] = target: CDK3/cyclin E (Homo sapiens) (UniProt P24864+O96020+Q00526); assay: Residual activity of CDK3/Cyclin E at 1 uM by microplate scintillation counting; format: protein-complex assay
Chain of CDK3/cyclin E (Homo sapiens) (O96020 whole entry, looked up): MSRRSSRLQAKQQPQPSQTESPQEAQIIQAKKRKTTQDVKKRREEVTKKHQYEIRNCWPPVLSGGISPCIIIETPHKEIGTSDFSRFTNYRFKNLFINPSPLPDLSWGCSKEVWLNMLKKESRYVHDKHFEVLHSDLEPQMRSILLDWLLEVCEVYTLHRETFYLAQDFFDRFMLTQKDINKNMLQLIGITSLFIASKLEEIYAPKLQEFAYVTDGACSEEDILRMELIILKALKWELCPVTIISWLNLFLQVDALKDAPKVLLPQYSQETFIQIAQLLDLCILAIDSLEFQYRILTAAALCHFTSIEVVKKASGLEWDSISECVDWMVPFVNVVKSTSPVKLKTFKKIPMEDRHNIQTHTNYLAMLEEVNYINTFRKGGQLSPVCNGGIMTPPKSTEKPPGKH
Chain of CDK3/cyclin E (Homo sapiens) (P24864 whole entry, looked up): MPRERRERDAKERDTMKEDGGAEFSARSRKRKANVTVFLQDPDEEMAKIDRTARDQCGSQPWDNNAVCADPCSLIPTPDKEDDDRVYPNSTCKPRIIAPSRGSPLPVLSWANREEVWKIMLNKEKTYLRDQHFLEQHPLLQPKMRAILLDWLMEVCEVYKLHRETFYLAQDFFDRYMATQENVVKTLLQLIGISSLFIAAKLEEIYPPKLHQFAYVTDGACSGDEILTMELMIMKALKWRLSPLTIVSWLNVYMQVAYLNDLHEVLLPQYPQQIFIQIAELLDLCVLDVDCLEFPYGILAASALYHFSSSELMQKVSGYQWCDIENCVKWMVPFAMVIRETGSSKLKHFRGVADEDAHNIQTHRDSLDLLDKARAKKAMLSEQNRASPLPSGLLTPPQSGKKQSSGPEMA
Chain of CDK3/cyclin E (Homo sapiens) (Q00526 whole entry, looked up): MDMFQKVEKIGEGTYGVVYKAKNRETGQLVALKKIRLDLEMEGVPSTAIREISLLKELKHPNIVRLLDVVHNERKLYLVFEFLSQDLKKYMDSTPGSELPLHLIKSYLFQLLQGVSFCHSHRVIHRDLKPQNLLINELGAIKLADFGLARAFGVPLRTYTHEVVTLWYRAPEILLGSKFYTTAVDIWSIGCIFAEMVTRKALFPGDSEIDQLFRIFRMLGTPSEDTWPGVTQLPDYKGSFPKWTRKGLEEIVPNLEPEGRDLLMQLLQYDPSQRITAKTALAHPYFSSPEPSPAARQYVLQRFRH

[10] = target: T3, NUAK family SNF1-like kinase 1 (Homo sapiens) (UniProt O60285); assay: Residual activity of ARK5 at 0.1 uM by microplate scintillation counting
T3 sequence (whole entry): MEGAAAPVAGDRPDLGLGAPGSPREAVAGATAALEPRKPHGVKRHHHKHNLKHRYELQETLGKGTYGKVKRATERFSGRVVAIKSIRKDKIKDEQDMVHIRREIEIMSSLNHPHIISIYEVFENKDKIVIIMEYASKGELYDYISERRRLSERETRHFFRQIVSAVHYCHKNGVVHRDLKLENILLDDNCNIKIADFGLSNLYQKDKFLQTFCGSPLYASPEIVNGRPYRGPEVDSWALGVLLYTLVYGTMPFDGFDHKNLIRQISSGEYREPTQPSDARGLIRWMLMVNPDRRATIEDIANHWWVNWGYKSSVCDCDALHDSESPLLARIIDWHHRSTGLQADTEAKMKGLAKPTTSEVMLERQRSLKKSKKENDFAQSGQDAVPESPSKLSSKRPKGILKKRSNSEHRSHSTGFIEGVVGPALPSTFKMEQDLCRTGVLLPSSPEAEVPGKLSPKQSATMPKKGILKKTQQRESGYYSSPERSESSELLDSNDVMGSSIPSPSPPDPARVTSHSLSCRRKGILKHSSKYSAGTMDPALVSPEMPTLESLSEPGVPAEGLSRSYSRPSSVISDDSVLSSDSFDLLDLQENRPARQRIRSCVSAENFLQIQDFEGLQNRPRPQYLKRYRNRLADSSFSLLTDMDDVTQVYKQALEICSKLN

[11] = target: Proto-oncogene tyrosine-protein kinase ROS (Homo sapiens) (UniProt P08922); assay: Residual activity of ROS at 0.1 uM by microplate scintillation counting
Chain of Proto-oncogene tyrosine-protein kinase ROS (Homo sapiens) (P08922 whole entry): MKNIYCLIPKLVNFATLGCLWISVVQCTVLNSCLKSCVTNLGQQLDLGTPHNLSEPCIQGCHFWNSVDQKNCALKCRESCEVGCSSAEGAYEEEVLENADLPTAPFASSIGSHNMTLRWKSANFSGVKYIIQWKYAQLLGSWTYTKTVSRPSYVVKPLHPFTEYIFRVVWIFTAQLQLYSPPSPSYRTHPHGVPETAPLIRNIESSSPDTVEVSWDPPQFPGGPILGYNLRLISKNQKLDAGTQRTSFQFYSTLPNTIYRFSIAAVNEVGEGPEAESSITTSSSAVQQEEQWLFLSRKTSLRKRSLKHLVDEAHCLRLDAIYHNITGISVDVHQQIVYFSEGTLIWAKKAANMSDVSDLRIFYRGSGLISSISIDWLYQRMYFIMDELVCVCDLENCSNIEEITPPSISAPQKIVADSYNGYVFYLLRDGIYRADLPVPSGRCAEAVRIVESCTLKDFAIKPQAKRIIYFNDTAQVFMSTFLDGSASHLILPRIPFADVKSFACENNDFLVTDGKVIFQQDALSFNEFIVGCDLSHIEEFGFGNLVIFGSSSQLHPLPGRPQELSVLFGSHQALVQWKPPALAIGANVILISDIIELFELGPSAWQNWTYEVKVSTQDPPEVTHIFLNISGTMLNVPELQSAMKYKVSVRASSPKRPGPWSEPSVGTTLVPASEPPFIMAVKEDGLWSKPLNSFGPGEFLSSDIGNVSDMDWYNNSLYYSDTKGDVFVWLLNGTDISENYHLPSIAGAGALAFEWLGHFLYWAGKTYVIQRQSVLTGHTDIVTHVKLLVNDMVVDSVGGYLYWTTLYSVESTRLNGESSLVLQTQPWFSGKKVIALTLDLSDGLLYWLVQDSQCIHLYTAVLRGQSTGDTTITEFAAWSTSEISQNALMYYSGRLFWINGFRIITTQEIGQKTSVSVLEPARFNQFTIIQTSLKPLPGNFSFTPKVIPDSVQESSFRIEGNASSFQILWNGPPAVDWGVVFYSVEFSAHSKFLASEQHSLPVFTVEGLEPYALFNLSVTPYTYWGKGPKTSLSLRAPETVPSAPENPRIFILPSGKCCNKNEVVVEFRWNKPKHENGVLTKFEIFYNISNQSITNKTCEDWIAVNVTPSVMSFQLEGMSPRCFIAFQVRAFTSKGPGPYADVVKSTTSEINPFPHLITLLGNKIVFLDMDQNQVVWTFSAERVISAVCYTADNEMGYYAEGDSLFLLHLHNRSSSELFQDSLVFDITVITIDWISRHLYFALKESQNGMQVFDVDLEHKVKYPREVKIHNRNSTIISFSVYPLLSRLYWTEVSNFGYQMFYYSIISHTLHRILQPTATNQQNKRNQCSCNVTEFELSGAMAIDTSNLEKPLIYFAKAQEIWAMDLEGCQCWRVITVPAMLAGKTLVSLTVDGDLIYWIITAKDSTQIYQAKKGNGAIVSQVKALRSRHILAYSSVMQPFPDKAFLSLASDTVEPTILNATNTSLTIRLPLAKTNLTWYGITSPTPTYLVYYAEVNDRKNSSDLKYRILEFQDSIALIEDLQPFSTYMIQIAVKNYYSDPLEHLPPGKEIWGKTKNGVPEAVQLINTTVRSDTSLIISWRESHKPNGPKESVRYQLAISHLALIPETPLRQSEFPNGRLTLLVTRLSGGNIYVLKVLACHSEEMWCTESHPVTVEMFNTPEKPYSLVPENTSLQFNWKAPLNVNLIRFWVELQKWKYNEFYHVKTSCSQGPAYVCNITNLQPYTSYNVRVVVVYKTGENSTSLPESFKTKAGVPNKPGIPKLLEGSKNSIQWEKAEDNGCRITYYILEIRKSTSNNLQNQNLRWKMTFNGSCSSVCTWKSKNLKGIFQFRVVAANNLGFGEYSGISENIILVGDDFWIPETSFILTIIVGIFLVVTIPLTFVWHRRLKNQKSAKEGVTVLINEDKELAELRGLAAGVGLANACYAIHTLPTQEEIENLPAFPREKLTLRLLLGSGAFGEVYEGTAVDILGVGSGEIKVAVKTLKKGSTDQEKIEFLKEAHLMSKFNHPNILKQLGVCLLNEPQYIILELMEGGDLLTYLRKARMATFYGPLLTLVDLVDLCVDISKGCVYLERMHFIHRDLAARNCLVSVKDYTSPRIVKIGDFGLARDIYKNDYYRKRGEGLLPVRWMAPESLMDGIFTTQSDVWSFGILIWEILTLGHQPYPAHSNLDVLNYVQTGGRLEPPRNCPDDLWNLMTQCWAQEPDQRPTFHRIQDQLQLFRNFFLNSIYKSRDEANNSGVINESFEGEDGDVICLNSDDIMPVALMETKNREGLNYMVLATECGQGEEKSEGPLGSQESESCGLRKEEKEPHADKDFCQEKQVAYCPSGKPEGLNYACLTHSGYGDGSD

Chain of Ribosomal protein S6 kinase alpha-4 (Homo sapiens) (O75676 whole entry, looked up): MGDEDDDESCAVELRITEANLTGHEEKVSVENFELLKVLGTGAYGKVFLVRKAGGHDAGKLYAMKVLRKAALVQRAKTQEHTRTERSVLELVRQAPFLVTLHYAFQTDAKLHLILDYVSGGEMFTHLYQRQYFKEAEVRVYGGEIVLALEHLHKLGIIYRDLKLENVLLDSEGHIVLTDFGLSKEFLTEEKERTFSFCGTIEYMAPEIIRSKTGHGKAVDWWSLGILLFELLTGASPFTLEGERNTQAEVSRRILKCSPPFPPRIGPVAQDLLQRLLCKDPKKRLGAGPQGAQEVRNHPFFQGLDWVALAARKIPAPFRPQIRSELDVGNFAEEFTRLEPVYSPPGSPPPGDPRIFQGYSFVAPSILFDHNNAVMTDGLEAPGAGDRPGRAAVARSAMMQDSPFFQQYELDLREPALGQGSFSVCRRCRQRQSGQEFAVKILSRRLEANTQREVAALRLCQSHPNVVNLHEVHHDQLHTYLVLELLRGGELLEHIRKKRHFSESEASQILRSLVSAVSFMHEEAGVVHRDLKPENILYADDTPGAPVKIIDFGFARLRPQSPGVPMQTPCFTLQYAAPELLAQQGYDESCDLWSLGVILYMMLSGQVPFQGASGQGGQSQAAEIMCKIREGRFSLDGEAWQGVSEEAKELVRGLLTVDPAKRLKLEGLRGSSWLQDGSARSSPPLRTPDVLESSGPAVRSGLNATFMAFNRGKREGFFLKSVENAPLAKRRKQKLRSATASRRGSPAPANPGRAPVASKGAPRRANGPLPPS

residual activity [1] [%] | residual activity [2] [%] | residual activity [3] [%] | residual activity [4] [%] | residual activity [5] [%] | residual activity [6] [%] | residual activity [7] [%] | residual activity [8] [%] | residual activity [9] [%] | residual activity [10] [%] | residual activity [11] [%] | SMILES
86 | 103 | 302 | 76 | 70 | 88 | 112 | 86 | 85 | 98 | 91 | COc1cc2c(Oc3ccc(-c4nc5ccccc5s4)cc3)ncnc2cc1OCCCN1CCN(C)CC1
86 | 95 | 236 | 106 | 51 | 97 | 142 | 72 | 89 | 83 | 84 | COc1cc2c(Oc3ccc(-c4nc5ccccc5s4)cc3)ncnc2cc1OCCCN1CCCC1
87 | 98 | 162 | 90 | 74 | 93 | 36 | 86 | 79 | 94 | 98 | COc1cc2c(Oc3ccc(-c4nc5ccccc5s4)cc3F)ncnc2cc1OCCCN1CCN(C)CC1
